Values joined by “and” are separate entries in the source; they are usually repeats but may differ in a detail not shown here. Equal entries are not always repeated.
Target: T1, human 5-HT1A (Homo sapiens, UniProt P08908)
T1 sequence (P08908 1-422): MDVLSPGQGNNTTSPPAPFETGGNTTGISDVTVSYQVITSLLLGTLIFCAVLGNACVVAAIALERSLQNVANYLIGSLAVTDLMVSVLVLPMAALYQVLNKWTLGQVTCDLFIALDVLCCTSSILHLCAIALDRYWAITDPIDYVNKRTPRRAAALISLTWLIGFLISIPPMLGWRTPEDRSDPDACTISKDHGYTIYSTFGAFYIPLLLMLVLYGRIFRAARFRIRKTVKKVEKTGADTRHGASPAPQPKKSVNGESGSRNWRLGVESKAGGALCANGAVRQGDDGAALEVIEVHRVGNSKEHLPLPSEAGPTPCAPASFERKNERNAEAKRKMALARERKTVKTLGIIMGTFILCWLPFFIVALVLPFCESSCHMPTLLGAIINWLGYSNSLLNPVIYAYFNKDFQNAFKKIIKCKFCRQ
Experiment: cell-based
Conditions: not given

Going from CCN(C)CCc1c[nH]c2ccccc12 [Compound 2] to CC(C)N(C)CCc1c[nH]c2ccccc12 [Compound 3], the EC50 rises from 302 nM to 1980 nM (6.6-fold). The first is the more potent here.

First: CC(C)N(CCc1c[nH]c2ccccc12)C(C)C [Compound 4]
Second: c1ccc2c(CCN3CCCC3)c[nH]c2c1 [Compound 5]
The EC50 of the first is 70-fold higher: 1330 nM for the first, 19.1 nM for the second.

Going from c1ccc2c(CCN3CCCCC3)c[nH]c2c1 [Compound 6] to Fc1cccc2[nH]cc(CCN3CCCC3)c12 [Compound 58, 4-fluoro-3-(2-(pyrrolidin-1-yl)ethyl)-1H-indole], the EC50 falls from 485 nM to 16.7 nM (29-fold).

Compared with C1=CC2CCC1CN2CCc1c[nH]c2ccccc12 (centres unmarked) [Compound 7], Oc1ccc2[nH]cc(CCN3C[C@H]4C=C[C@@H]3CC4)c2c1 [Compound 51, 3-(2-((1S,4R)-2-azabicyclo[2.2.2]oct-5-eN-2-yl)ethyl)-1H-indol-5-ol] is 100-fold lower in EC50: 15500 nM for the first, 149 nM for the second.

Going from C=CCN(CC=C)CCc1c[nH]c2ccc(OC)cc12 [Compound 17] to COc1ccc2c(CCN(C)C)c[nH]c2c1 [Compound 60, 2-(6-methoxy-1H-indol-3-yl)-N,N-dimethylethan-1-amine], the EC50 rises from 4.66 nM to 3240 nM (700-fold). The first is the more potent here.

Compared with COc1ccc2[nH]cc(CCN3CCCC3C)c2c1 (centres unmarked) [Compound 19], COc1ccc2[nH]cc(CCN3C[C@H]4C=C[C@@H]3CC4)c2c1 [Compound 24] is 260-fold higher in EC50: 2.4 nM for the first, 628 nM for the second.

Going from COc1ccc2[nH]cc(CCn3ccnc3)c2c1 [Compound 22, 3-(2-(1H-imidazol-1-yl)ethyl)-5-methoxy-1H-indole] to COc1ccc2[nH]cc(CCN3CC=CCC3)c2c1 [Compound 23, 3-(2-(3,6-dihydropyridin-1(2H)-yl)ethyl)-5-methoxy-1H-indole], the EC50 falls from 292 nM to 8.77 nM (33-fold).

Going from COc1ccc2[nH]cc(CCN3CC=CC3)c2c1F [Compound 37, 3-(2-(2,5-dihydro-1H-pyrrol-1-yl)ethyl)-4-fluoro-5-methoxy-1H-indole] to COc1ccc2c(c(CCN3CC=CC3)cn2C)c1F [Compound 47, 3-(2-(2,5-dihydro-1H-pyrrol-1-yl)ethyl)-4-fluoro-5-methoxy-1-methyl-1H-indole], the EC50 rises from 0.00229 nM to 2.74 nM (1200-fold).

Going from COc1ccc2[nH]cc(CCN3C[C@H]4C=C[C@@H]3CC4)c2c1F [Compound 38, (1S,4R)-2-(2-(4-fluoro-5-methoxy-1H-indol-3-yl)ethyl)-2-azabicyclo[2.2.2]oct-5-ene] to C1=CC2CCC1CN2CCc1c[nH]c2cc3c(cc12)OCO3 (centres unmarked) [Compound 65], the EC50 rises from 173 nM to 9890 nM (57-fold).

First: COc1ccc2c(c1)c(CCN1CCCC1)cn2C [Compound 43, 5-methoxy-1-methyl-3-(2-(pyrrolidin-1-yl)ethyl)-1H-indole]
Second: COc1ccc2c(c1)c(CCN1CC=CC1)cn2C [Compound 44, 3-(2-(2,5-dihydro-1H-pyrrol-1-yl)ethyl)-5-methoxy-1-methyl-1H-indole]
The EC50 of the first is 2.3-fold lower: 89.1 nM for the first, 209 nM for the second.

First: COc1ccc2c(c1)c(CCn1cccc1)cn2C [Compound 45, 3-(2-(1H-pyrrol-1-yl)ethyl)-5-methoxy-1-methyl-1H-indole]
Second: COc1ccc2c(CCN3CC=CC3)c[nH]c2c1 [Compound 62, 3-(2-(2,5-dihydro-1H-pyrrol-1-yl)ethyl)-6-methoxy-1H-indole]
The EC50 of the first is 210-fold higher: 6580 nM for the first, 30.9 nM for the second.

Going from COc1ccc2c(c(CCN3CCCC3)cn2C)c1F [Compound 46, 4-fluoro-5-methoxy-1-methyl-3-(2-(pyrrolidin-1-yl)ethyl)-1H-indole] to COc1cccc2[nH]cc(CCN3CCCC3)c12 [Compound 55, 4-methoxy-3-(2-(pyrrolidin-1-yl)ethyl)-1H-indole], the EC50 rises from 100 nM to 164 nM (1.6-fold). The first is the more potent here.

First: c1ccc(COc2ccc3[nH]cc(CCN4CCCC4)c3c2)cc1 [Compound 48, 5-(benzyloxy)-3-(2-(pyrrolidin-1-yl)ethyl)-1H-indole]
Second: COc1ccc2c(CCN3CCCC3)c[nH]c2c1 [Compound 61, 6-methoxy-3-(2-(pyrrolidin-1-yl)ethyl)-1H-indole]
The EC50 of the first is 15-fold lower: 33 nM for the first, 492 nM for the second. The first is the more potent here.

Compared with CCN(C)CCc1c[nH]c2cccc(O)c12 [Compound 53, 4-OH-MET], CN(C)CCc1c[nH]c2cccc(F)c12 [Compound 57, 2-(4-fluoro-1H-indol-3-yl)-N,N-dimethylethan-1-amine] is 8.8-fold lower in EC50: 769 nM for the first, 87.7 nM for the second. The second is the more potent here.

Compared with COc1cccc2[nH]cc(CCN(C)C)c12 [Compound 54, 2-(4-methoxy-1H-indol-3-yl)-N,N-dimethylethan-1-amine], Cc1cccc2c(CCN(C)C)c[nH]c12 [Compound 70, N,N-dimethyl-2-(7-methyl-1H-indol-3-yl)ethan-1-amine] is 2.2-fold higher in EC50: 558 nM for the first, 1210 nM for the second.

Going from c1[nH]c2cc3c(cc2c1CCN1CCCC1)OCO3 [Compound 64, 7-(2-(pyrrolidin-1-yl)ethyl)-5H-[1,3]dioxolo[4,5-f]indole] to CCC1C[C@@H]2C=C[C@H]1N(CCc1c[nH]c3cc4c(cc13)OCO4)C2 (stereo partly drawn) [Compound 66, 7-(2-((1S,4R)-7-ethyl-2-azabicyclo[2.2.2]oct-5-en-2-yl)ethyl)-5H-[1,3]dioxolo[4,5-f]indole], the EC50 rises from 3.5 nM to 1690 nM (480-fold). The first is the more potent here.

With CC[C@H]1C[C@@H]2C=C[C@H]1N(CCc1c[nH]c3ccc(OC)c(F)c13)C2 [Compound 39, (1S,4R,7S)-7-ethyl-2-(2-(4-fluoro-5-methoxy-1H-indol-3-yl)ethyl)-2-aza bicyclo[2.2.2]oct-5-ene] the EC50 was 47.3 nM and 46.8 nM.
With Oc1ccc2[nH]cc(CCN3CCCC3)c2c1F [Compound 42, 4-fluoro-3-(2-(pyrrolidin-1-yl)ethyl)-1H-indol-5-ol] the EC50 was 0.04 nM and 0.0417 nM.
For Oc1ccc2[nH]cc(CCN3CCCC3)c2c1 [Compound 50, 3-(2-(pyrrolidine-1-yl)ethyl)-1H-indol-5-ol], the EC50 was 0.1 nM and 0.0977 nM.
With CN(C)CCc1c[nH]c2cc3c(cc12)OCO3 [Compound 63, 2-(5H-[1,3]dioxolo[4,5-f]indol-7-yl)-N,N-dimethylethan-1-amine] the EC50 was 64.4 nM and 64.6 nM.
With CCN(C)CCc1c[nH]c2ccc(SC)cc12 [Compound 68, N-ethyl-N-methyl-2-(5-(methylthio)-1H-indol-3-yl)ethan-1-amine] the EC50 was 3.35 nM and 3.31 nM.

Target: T1, human 5-HT1A
Experiment: 5-HT1A-mediated cAMP reduction assay (GloSensor, HEK293-T)
Conditions: Activity (5-HT1A cAMP) EC50 (nM), Table 5

First: CN(C)CCc1c[nH]c2ncccc12 [Compound 72, N,N-dimethyl-2-(1H-pyrrolo[2,3-b]pyridin-3-yl)ethan-1-amine]
Second: CCN(CC)CCc1c[nH]c2ncccc12 [Compound 73, N,N-diethyl-2-(1H-pyrrolo[2,3-b]pyridin-3-yl)ethan-1-amine]
The EC50 of the first is 4.1-fold lower: 1910 nM for the first, 7800 nM for the second.

Going from c1cnc2[nH]cc(CCN3CCCC3)c2c1 [Compound 74, 3-(2-(pyrrolidin-1-yl)ethyl)-1H-pyrrolo[2,3-b]pyridine] to c1cnc2[nH]cc(CCN3CCCCC3)c2c1 [Compound 75, 3-(2-(piperidin-1-yl)ethyl)-1H-pyrrolo[2,3-b]pyridine], the EC50 rises from 3240 nM to 18500 nM (5.7-fold). The first is the more potent here.

Compared with COc1ccc2occ(CCN(C)C)c2c1 [Compound 76, 2-(5-methoxybenzofuran-3-yl)-N,N-dimethylethan-1-amine], COc1ccc2occ(CCN3CCCC3)c2c1 [Compound 77, 1-(2-(5-methoxybenzofuran-3-yl)ethyl)pyrrolidine] is 25-fold lower in EC50: 178 nM for the first, 7.19 nM for the second.

Compared with COc1ccc2occ(CCN3CCCCC3)c2c1 [Compound 78, 1-(2-(5-methoxybenzofuran-3-yl)ethyl)piperidine], COc1ccc2occ(CCN3CC=CCC3)c2c1 [Compound 79, 1-(2-(5-methoxybenzofuran-3-yl)ethyl)-1,2,3,6-tetrahydropyridine] is 17-fold higher in EC50: 416 nM for the first, 7130 nM for the second. The first is the more potent here.

Same assay, conditions: EC50 (nM) Mean Gio(cAMP)-1A, Table 2

Going from COc1ccc2[nH]cc(CCN3C[C@H]4C=C[C@@H]3CC4)c2c1F [Compound 14] to CC[C@H]1C[C@@H]2C=C[C@H]1N(CCc1c[nH]c3ccc(OC)c(F)c13)C2 [Compound 15], the EC50 falls from 173 nM to 47.3 nM (3.7-fold).

Going from CCN(CC)CCc1c[nH]c2ccc(O)c(F)c12 [Compound 17] to Oc1ccc2[nH]cc(CCN3CCCC3)c2c1F [Compound 18], the EC50 falls from 0.76 nM to 0.04 nM (19-fold). The second is the more potent here.

Work on COc1ccc2c(c(CCN3CCCC3)cn2C)c1F [Compound 19] yielded an EC50 of 100 nM.

Same assay, conditions: Table 6, commercial ligands

With CC1(C)CC(=O)N(CCCCN2CCN(c3ncccn3)CC2)C(=O)C1 [Gepiron, Gepirone, reference compound] the “Efficacy as %5HT 5-HT1A cAMP” value was 95.4 %5HT.

Same assay, conditions: pEC50 Gio(cAMP)-1A, Table 2

Going from CC[C@H]1C[C@@H]2C=C[C@H]1N(CCc1c[nH]c3ccc(OC)c(F)c13)C2 [Compound 15] to Oc1ccc2[nH]cc(CCN3CCCC3)c2c1F [Compound 18], the EC50 falls from 46.8 nM to 0.0417 nM (1100-fold). The second is the more potent here.

Target: 5-HT2A (Homo sapiens, UniProt P28223)
Sequence (P28223 whole entry): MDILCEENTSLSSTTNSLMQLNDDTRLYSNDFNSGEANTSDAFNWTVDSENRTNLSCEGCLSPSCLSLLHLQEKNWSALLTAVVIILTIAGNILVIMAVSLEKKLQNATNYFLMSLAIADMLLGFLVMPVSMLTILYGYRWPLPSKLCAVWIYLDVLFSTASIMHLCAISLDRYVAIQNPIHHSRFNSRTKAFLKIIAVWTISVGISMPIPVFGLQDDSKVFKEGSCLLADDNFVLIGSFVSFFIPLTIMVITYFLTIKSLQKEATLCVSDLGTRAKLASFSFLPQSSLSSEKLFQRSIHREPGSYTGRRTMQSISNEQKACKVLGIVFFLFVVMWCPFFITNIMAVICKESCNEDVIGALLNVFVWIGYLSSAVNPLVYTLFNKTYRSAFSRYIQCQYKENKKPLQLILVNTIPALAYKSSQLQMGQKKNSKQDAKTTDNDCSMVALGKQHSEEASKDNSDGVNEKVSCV
Experiment: cell-based
Conditions: not given

With CN(C)CCc1c[nH]c2ccccc12 [Compound 1] the EC50 was 94.4 nM and 93.3 nM.

COc1ccc2[nH]cc(CCN3CC=CC3)c2c1F [Compound 37, 3-(2-(2,5-dihydro-1H-pyrrol-1-yl)ethyl)-4-fluoro-5-methoxy-1H-indole] gave an EC50 of 120 nM.

Target: 5-HT1A (Homo sapiens, UniProt P08908)
Experiment: BRET signaling assay: 5-HT1A-mediated activation of heterotrimeric Gi1 (TRUPATH, HEK293-T)
Conditions: EC50 (nM), Gi1 BRET, 5-HT1A WT

With CN(C)CCc1c[nH]c2ccc(O)cc12 [Bufotenine (5-OH-DMT), Bufotenine, reference compound] the EC50 was 9.29 nM.

Same assay, conditions: Gi BRET EC50

Going from CCN(CC)CCc1c[nH]c2ccc(OC)cc12 [Compound 11, 5-MeO-DET] to COc1ccc2[nH]cc(CCN3CC=CC3)c2c1F [Compound 37, 3-(2-(2,5-dihydro-1H-pyrrol-1-yl)ethyl)-4-fluoro-5-methoxy-1H-indole], the EC50 falls from 37.1 nM to 0.22 nM (170-fold). The second is the more potent here.

Same assay, conditions: HEK-293T, read-out: Emax, 5-HT1A-mediated activation of Gi1 (BRET)

For O=C1CCc2ccc(OCCCCN3CCN(c4cccc(Cl)c4Cl)CC3)cc2N1 [Aripiprazole, aripiprazole, reference compound], the Emax was 77.1%.

Same assay, conditions: Table 6, commercial ligands

In the case of O=C1CCc2ccc(OCCCCN3CCN(c4cccc(Cl)c4Cl)CC3)cc2N1 [Aripiprazole, aripiprazole, reference compound], the “Efficacy as %5HT 5-HT1A BRET Gi1” value is reported as 77.1 %5HT.

Same assay, conditions: read-out: Gi BRET EC50

With COc1ccc2[nH]cc(CCN3CCCCC3)c2c1 [Compound 5-MeO-PipT, 5-methoxypiperidinyl-tryptamine] the EC50 was 88.5 nM.

Same assay, conditions: relative to 5-MeO-PyrT

COc1ccc2[nH]cc(CCN3CCCCC3)c2c1 [Compound 5-MeO-PipT, 5-methoxypiperidinyl-tryptamine] was tested, and the “loss of potency at 5-HT1A” value was roughly 42 fold.

Reference: patent US20260034119A1, “5-METHOXY-N,N-[…][…], THEIR […], AND METHODS FOR TREATMENT OF NEUROLOGICAL, […], AND SUBSTANCE USE DISORDERS” (priority 2023, published 2026)
